Legend:
Assay type in all cases: biochemical
[1] = biological target: T1, cathepsin B (Homo sapiens, UniProt P07858); test: Cathepsin B enzyme inhibition in vitro (kinetic fluorescence assay); settings: cathepsin B isolated from human liver vs calpain I
T1 construct: cathepsin B—isolated from human liver (Calbiochem #219362); purchased Calbiochem 219362; host or cells: human liver (tissue-derived)
Method: (§1) The following solutions and buffers were employed: • HBS (for 40 ml): 800 μl M HEPES; 2.16 ml 100 mM KCl; 4.8 ml 1M NaCl; 3.59 ml 5% glucose; 60 μl μM MgSO4; 400 μl 100 mM Na pyruvate, 28.19 ml water; pH 7.2-7.5. • lysis buffer (for 20 ml): 400 μl M Tris pH 8.2; 2.74 ml 1M NaCl; 520 μl 0.5M EDTA; 2 ml 10% triton X-100; 0.8 ml (=1:25) CompletePlus (1 tablet/2 ml H2O); 200 μl 100 mM Pefabloc; 13.34 ml water, pH 8.2. • TBST (10×) (for 1 l): 100 mM Tris (12.1 g); 1.5M NaCl (87 g); 1% Tween 20 (10 g), adjusted to pH 8. I Enzyme Inhibition In Vitro: • Testing for blockade of the corresponding enzymic activities was carried out by means of kinetic fluorescence assays (excitation 390 nm, emission 460 nm). • Apparent Ki values were calculated from the experimentally determined IC50 values by the Cheng-Prussoff relation assuming a reversible competitive enzyme inhibition. The Km values of the substrates used under the assay conditions indicated above were: 90 μM (Z-Phe-Arg-AMC, cathepsin B), 10 μM (Z-Gly-Pro-Arg-AMC, cathepsin K), 2 μM (Z-Phe-Arg-AMC, cathepsin L), and 30 μM (Z-Val-Val-Arg-AMC, cathepsin S). • The indicated Ki values are averages of the inhibition constants calculated on the basis of 2 to 4 independent dose-effect plots.
(§2) The following assays were used: • 1. Calpain I: • 20 nM calpain-I—isolated from human erythrocytes (Calbiochem #208713), 100 μM Suc-Leu-Tyr-AMC (Bachem #1-1355) as substrate in buffer with 62 mM imidazole, 0.3 mM CaCl2, 0.10% CHAPS, 0.05% BSA, 1 mM DTT at pH 7.3 and room temperature. • 2. Cathepsin B: • 0.25 nM cathepsin B—isolated from human liver (Calbiochem #219362), 100 μM Z-Phe-Arg-AMC (Bachem #I-1160) as substrate 50 mM MES, 2 mM EDTA, 0.05% Brij 35, 2.5 mM L-cysteine, pH 6.0, room temperature. • 3. Cathepsin K: • 3 nM cathepsin K—activated from recombinant human procathepsin K from E. coli (Calbiochem #342001), 10 μM Z-Gly-Pro-Arg-AMC (Biomol #P-142) as substrate in 50 mM MES, 2 mM EDTA, 0.05% Brij 35, 2.5 mM L-cysteine, pH 6.0, room temperature. • 4. Cathepsin L: • 1 nM cathepsin L—isolated from human liver (Calbiochem #219402), 2 μM Z-Phe-Arg-AMC (Bachem #1-1160) as substrate in 50 mM MES, 2 mM EDTA, 0.05% Brij 35, 2.5 mM L-cysteine, pH 6.0, room temperature. • 5. Cathepsin S: • 0.5 nM recombinant human cathepsin S from E. coli (Calbiochem #219343), 20 μM Z-Val-Val-Arg-AMC (Bachem #1-1540) as substrate in 50 mM MES, 2 mM EDTA, 0.05% Brij 35, 2.5 mM L-cysteine, pH 6.0, room temperature. • The results of the in vitro determination are indicated in Table 1. The following abbreviations are used in Table 1: • The “Calpain activity” column, ++ stands for a calpain Ki (Ki(calpain)) of ≦40 nM and + means: 40 nM<Ki(Calpain)≦100 nM. • The “Sel. cat. B” column indicates the Ki(cathepsin B)/Ki(calpain) ratio. In this connection, ++ means a Ki(cathepsin B)/Ki(calpain) ratio of ≧30 and + means 10≦Ki(cathepsin B)/Ki(calpain)<30. • The “Sel. cat. K” column indicates the Ki(cathepsin K)/Ki(calpain) ratio. In this connection, ++ means a Ki(cathepsin K)/Ki(calpain) ratio of ≧30 and + means 10≦Ki(cathepsin K)/Ki(calpain)<30. • The “Sel. cat. L” column indicates the Ki(cathepsin L)/Ki(calpain) ratio. In this connection, ++ means a Ki(cathepsin L)/Ki(calpain) ratio of ≧50 and + means 30≦Ki(cathepsin L)/Ki(calpain)<50. • The “Sel. cat. S” column indicates the Ki(cathepsin S)/Ki(calpain) ratio. In this connection, ++ means a Ki(cathepsin S)/Ki(calpain) ratio of ≧100 and + means 50≦Ki(cathepsin S)/Ki(calpain)<100.

[2] = biological target: T2, cathepsin K (Homo sapiens, UniProt P43235); test: Cathepsin K enzyme inhibition in vitro (kinetic fluorescence assay); settings: cathepsin K activated from recombinant human procathepsin K vs calpain I
T2 construct: purchased Calbiochem 342001; host or cells: E. coli
T2 sequence (P43235 115-329): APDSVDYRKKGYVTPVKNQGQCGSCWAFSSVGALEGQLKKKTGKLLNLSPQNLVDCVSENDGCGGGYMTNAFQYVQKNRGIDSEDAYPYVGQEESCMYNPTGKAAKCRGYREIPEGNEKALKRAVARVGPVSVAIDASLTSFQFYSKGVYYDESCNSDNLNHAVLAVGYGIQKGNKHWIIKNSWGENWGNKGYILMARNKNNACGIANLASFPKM
Method: as §1, §2

[3] = biological target: T3, cathepsin L (Homo sapiens, UniProt P07711); test: Cathepsin L enzyme inhibition in vitro (kinetic fluorescence assay); settings: cathepsin L isolated from human liver vs calpain I
T3 construct: cathepsin L—isolated from human liver (Calbiochem #219402); purchased Calbiochem 219402; host or cells: human liver (tissue-derived)
T3 sequence (P07711 114-333): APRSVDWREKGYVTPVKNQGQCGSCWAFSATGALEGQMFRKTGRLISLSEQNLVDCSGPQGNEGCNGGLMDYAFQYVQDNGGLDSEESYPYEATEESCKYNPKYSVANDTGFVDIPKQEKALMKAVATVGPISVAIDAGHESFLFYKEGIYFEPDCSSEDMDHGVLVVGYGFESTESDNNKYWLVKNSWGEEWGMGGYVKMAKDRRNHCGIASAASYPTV
Method in brief: (§3)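 Kinetic fluorescence (ex 390/em 460 nm) at room temperature in 50 mM MES, 2 mM EDTA, 0.05% Brij 35, 2.5 mM L-cysteine, pH 6.0. Cathepsin B (liver, 0.25 nM) with 100 μM Z-Phe-Arg-AMC; cathepsin L (liver, 1 nM) with 2 μM Z-Phe-Arg-AMC; recombinant E. coli cathepsin S (0.5 nM) with 20 μM Z-Val-Val-Arg-AMC. Ki via Cheng-Prusoff.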

[4] = biological target: T4, cathepsin S (Homo sapiens, UniProt P25774); test: Cathepsin S enzyme inhibition in vitro (kinetic fluorescence assay); settings: recombinant human cathepsin S vs calpain I
T4 construct: purchased Calbiochem 219343; host or cells: E. coli
T4 sequence (P25774 115-331): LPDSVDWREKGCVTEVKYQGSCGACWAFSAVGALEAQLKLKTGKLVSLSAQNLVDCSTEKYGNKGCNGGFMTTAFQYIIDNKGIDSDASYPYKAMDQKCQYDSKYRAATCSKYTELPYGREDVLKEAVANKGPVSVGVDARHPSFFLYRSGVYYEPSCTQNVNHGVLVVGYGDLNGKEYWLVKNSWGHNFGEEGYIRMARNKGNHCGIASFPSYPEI
Method in brief: as §3

SMILES	Sel cat. B: Ki(cathepsin B)/Ki(calpain) ratio [1]	Sel cat. K: Ki(cathepsin K)/Ki(calpain) ratio [2]	Sel cat. L: Ki(cathepsin L)/Ki(calpain) ratio [3]	Sel cat. S: Ki(cathepsin S)/Ki(calpain) ratio [4]
NC(=O)C(=O)C(Cc1ccccc1)NC(=O)c1cc(Cl)cnc1-n1ccc(-c2ccccc2)n1 (stereo not shown) [Example 27, N-(3-Amino-1-benzyl-2,3-dioxopropyl)-5-chloro-2-(3-phenyl-1H-pyrazol-1-yl)nicotinamide]	++ (++ means a Ki(cathepsin B)/Ki(calpain) ratio of ≧30)	+ (+ means 10≦Ki(cathepsin K)/Ki(calpain)<30)	+ (+ means 30≦Ki(cathepsin L)/Ki(calpain)<50)	–
Cl.NC(=O)C(=O)C(Cc1ccccc1)NC(=O)c1cccnc1-n1ccc(-c2ccc(N3CCOCC3)cc2)n1 (stereo not shown) [Example 29, N-(3-Amino-1-benzyl-2,3-dioxopropyl)-2-[3-(4-morpholin-4-ylphenyl)-1H-pyrazol-1-yl]nicotinamide hydrochloride]	–	+ (+ means 10≦Ki(cathepsin K)/Ki(calpain)<30)	++ (++ means a Ki(cathepsin L)/Ki(calpain) ratio of ≧50)	++ (++ means a Ki(cathepsin S)/Ki(calpain) ratio of ≧100)
NC(=O)C(=O)C(Cc1ccccc1)NC(=O)c1cc(Cl)cnc1-n1ccc(-c2ccc(N3CCOCC3)cc2)n1 (stereo not shown) [Example 31, N-(3-Amino-1-benzyl-2,3-dioxopropyl)-5-chloro-2-[3-(4-morpholin-4-ylphenyl)-1H-pyrazol-1-yl]nicotinamide]	++ (++ means a Ki(cathepsin B)/Ki(calpain) ratio of ≧30)	+ (+ means 10≦Ki(cathepsin K)/Ki(calpain)<30)	+ (+ means 30≦Ki(cathepsin L)/Ki(calpain)<50)	–
NC(=O)C(=O)C(CC1CCCCC1)NC(=O)c1cccnc1-n1ccc(-c2ccccc2)n1 (stereo not shown) [Example 66, N-[3-Amino-1-(cyclohexylmethyl)-2,3-dioxopropyl]-2-(3-phenyl-1H-pyrazol-1-yl)nicotinamide]	–	+ (+ means 10≦Ki(cathepsin K)/Ki(calpain)<30)	+ (+ means 30≦Ki(cathepsin L)/Ki(calpain)<50)	++ (++ means a Ki(cathepsin S)/Ki(calpain) ratio of ≧100)
CN1CCN(c2ccc(-c3ccn(-c4ncccc4C(=O)NC(Cc4ccccc4)C(=O)C(N)=O)n3)cc2)CC1 (stereo not shown) [Example 68, N-(3-Amino-1-benzyl-2,3-dioxopropyl)-2-{3-[4-(4-methylpiperazin-1-yl)phenyl]-1H-pyrazol-1-yl}nicotinamide]	–	+ (+ means 10≦Ki(cathepsin K)/Ki(calpain)<30)	–	++ (++ means a Ki(cathepsin S)/Ki(calpain) ratio of ≧100)
NC(=O)C(=O)C(Cc1ccccc1)NC(=O)c1cccnc1-n1ccc(-c2cccc(N3CCCC3)c2)n1 (stereo not shown) [Example 74, N-(3-Amino-1-benzyl-2,3-dioxopropyl)-2-[3-(3-pyrrolidin-1-ylphenyl)-1H-pyrazol-1-yl]nicotinamide]	++ (++ means a Ki(cathepsin B)/Ki(calpain) ratio of ≧30)	++ (++ means a Ki(cathepsin K)/Ki(calpain) ratio of ≧30)	–	++ (++ means a Ki(cathepsin S)/Ki(calpain) ratio of ≧100)
NC(=O)C(=O)C(Cc1ccccc1)NC(=O)c1cccnc1-n1ccc(-c2ccc3c(c2)CCO3)n1 (stereo not shown) [Example 75, N-(3-Amino-1-benzyl-2,3-dioxopropyl)-2-[3-(2,3-dihydrobenzo[b]furan-5-yl)-1H-pyrazol-1-yl]nicotinamide]	–	+ (+ means 10≦Ki(cathepsin K)/Ki(calpain)<30)	++ (++ means a Ki(cathepsin L)/Ki(calpain) ratio of ≧50)	++ (++ means a Ki(cathepsin S)/Ki(calpain) ratio of ≧100)
N#Cc1cnc(-n2ccc(-c3ccccc3)n2)c(C(=O)NC(Cc2ccccc2)C(=O)C(N)=O)c1 (stereo not shown) [Example 82, N-(3-Amino-1-benzyl-2,3-dioxopropyl)-5-cyano-2-(3-phenyl-1H-pyrazol-1-yl)nicotinamide]	++ (++ means a Ki(cathepsin B)/Ki(calpain) ratio of ≧30)	++ (++ means a Ki(cathepsin K)/Ki(calpain) ratio of ≧30)	++ (++ means a Ki(cathepsin L)/Ki(calpain) ratio of ≧50)	–
N#Cc1cnc(-n2ccc(-c3ccccc3F)n2)c(C(=O)NC(Cc2ccccc2)C(=O)C(N)=O)c1 (stereo not shown) [Example 188, N-[3-Amino-2,3-dioxo-1-(phenylmethyl)propyl]-5-cyano-2-[3-(2-fluorophenyl)-1H-pyrazol-1-yl]pyridine-3-carboxamide]	–	++ (++ means a Ki(cathepsin K)/Ki(calpain) ratio of ≧30)	++ (++ means a Ki(cathepsin L)/Ki(calpain) ratio of ≧50)	–
NC(=O)C(=O)C(Cc1ccccc1)NC(=O)c1cccnc1-n1ccc(C2CCCCC2)n1 (stereo not shown) [Example 192, N-[3-Amino-2,3-dioxo-1-(phenylmethyl)propyl]-2-(3-cyclohexyl-1H-pyrazol-1-yl)pyridine-3-carboxamide]	–	+ (+ means 10≦Ki(cathepsin K)/Ki(calpain)<30)	++ (++ means a Ki(cathepsin L)/Ki(calpain) ratio of ≧50)	++ (++ means a Ki(cathepsin S)/Ki(calpain) ratio of ≧100)
